Measurements as given in PubChem BioAssay (NCI).
Where “and” joins values, the source holds several entries; their conditions need not be identical. Equal values may be shown once.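 1) Cells in 96-well plates. 2) Compound, 48 h, 5 concentrations. 3) Linear interpolation between surrounding doses. 4) Unreached endpoint = highest concentration. Abbreviation: GI50, concentration required for 50% inhibition of growth. TGI marks complete inhibition of growth.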

Legend:
Assay in all cases: DTP human tumour cell line panel, 48 h
NCI-H23 lung = system: NCI-H23 lung
LOX IMVI melanoma = system: LOX IMVI melanoma
BT-549 breast = system: BT-549 breast
UACC-257 melanoma = system: UACC-257 melanoma
HOP-92 NSCLC = system: HOP-92 NSCLC
MDA-MB-435 = system: MDA-MB-435
T-47D breast = system: T-47D breast
OVCAR-3 ovarian = system: OVCAR-3 ovarian
K-562 leukemia = system: K-562 leukemia
HT29 colon = system: HT29 colon

Structure (SMILES)	GI50 (NCI-H23 lung) [µM]	TGI (NCI-H23 lung)	GI50 (LOX IMVI melanoma)	TGI (LOX IMVI melanoma) [µM]	GI50 (BT-549 breast) [µM]	TGI (BT-549 breast) [µM]	GI50 (UACC-257 melanoma) [µM]	TGI (UACC-257 melanoma)	GI50 (HOP-92 NSCLC) [µM]	TGI (HOP-92 NSCLC) [µM]	GI50 (MDA-MB-435) [µM]	TGI (MDA-MB-435) [µM]	GI50 (T-47D breast) [µM]	TGI (T-47D breast) [µM]	GI50 (OVCAR-3 ovarian) [µM]	TGI (OVCAR-3 ovarian) [µM]	GI50 (K-562 leukemia)	GI50 (HT29 colon) [µM]	TGI (HT29 colon) [µM]	TGI (K-562 leukemia) [µM]
COc1cccc2c1C(=O)c1c(O)c3c(c(O)c1C2=O)C[C@@](O)(C(=O)CO)C[C@@H]3OC1CC2C(OCN2CN2COC3C(C)OC(O[C@H]4C[C@](O)(C(=O)CO)Cc5c(O)c6c(c(O)c54)C(=O)c4c(OC)cccc4C6=O)CC32)C(C)O1 (some centres undefined)	0.00477	0.0316 µM	0.002 µM	0.0328	0.024	> 0.46	0.0015	0.0208 µM	0.00606	> 0.293	0.013	0.0391	0.00185	0.0174	0.0142	0.0534	0.00402 µM	0.00717	0.115	–
O=C(N/N=C/c1coc2ccc(Cl)cc2c1=O)c1cc(O)c(O)c(O)c1	16.2	48.1 µM	22.5 µM	56.6	23.3	96.6	39.9	> 100 µM	31.9	> 100	27.2	66.7	> 100	> 100	40.4	> 100	15.2 µM	63.8	> 100	55.6
O=C1c2ccccc2-n2c1nc1ccc([N+](=O)[O-])cc1c2=O	–	> 100 µM	–	51.7	–	> 100	–	> 100 µM	–	> 100	–	–	–	> 100	–	99.7	–	–	–	> 100
CCOC(=O)c1c(C)n(Cc2ccc(Cl)cc2Cl)c2c1cc(O)c1[nH]c(Cc3ccccc3)nc12	3.6	10.6 µM	1.89 µM	3.66	2.77	7.02	19.3	39 µM	1.77	4.16	5.86	24.7	5.27	25.9	2.97	8.13	2.94 µM	3.89	17.3	10.7
C(#Cc1ccccc1C#Cc1cnccn1)c1cnccn1	21.9	57.3 µM	17.3 µM	53.4	21.6	> 85.8	22.7	> 58.6 µM	79.5	> 100	18.5	51.8	39.7	> 100	21.5	> 63.1	9.02 µM	41.8	> 100	> 44.3
CCCCCCCCCCCCNCCCc1ccccc1	1.9	3.65 µM	1.77 µM	3.24	1.75	3.19	1.74	3.18 µM	1.34	2.83	1.73	3.17	1.78	3.37	1.79	3.18	1.89 µM	1.75	3.21	4.54
C[C@H]1CCC/C=C/[C@@H]2C[C@H](O)C[C@H]2[C@H](O)C(O)C(O)C(=O)O1 (some centres undefined)	2.23	> 100 µM	–	–	2.72	> 100	1.1	> 100 µM	–	–	3.74	> 100	5.96	> 100	2.35	20.1	2.38 µM	1.24	17.9	> 23.6
Cc1ccc(S(=O)(=O)NC(=O)Nc2ncn[nH]2)cc1	–	> 100 µM	–	–	–	> 100	–	> 100 µM	–	> 100	–	> 100	–	> 100	–	> 100	–	–	> 100	> 100
O=C1OC(=O)c2c1cc1cc3c(cc1c2-c1ccc2c(c1)OCO2)OCO3	–	> 100 µM	–	–	–	> 100	–	> 100 µM	–	> 100	–	> 100	–	> 100	–	> 100	–	–	> 100	> 100
CN(C)Cc1nsc(N(C)C)n1	–	> 100 µM	–	> 100	–	> 100	–	> 100 µM	–	> 100	–	> 100	–	> 100	–	> 100	–	–	> 100	> 100
O=C1/C(=C/c2ccccc2)CN(C(=O)/C=C/c2ccccc2)C/C1=C\c1ccccc1	–	32.6 µM	–	7.1	–	4.7	–	37 µM	–	62.2	–	3.74	–	15.1	–	24.7	–	–	11.8	> 43.3
CC(C)(C)c1ccc(OCCCCCCCN2CCNCC2)cc1	4.28	17.6 µM	1.52 µM	3.06	1.53	3.01	1.98	3.8 µM	1.72	6.11	1.57	2.98	1.76	3.93	1.63	3.12	1.56 µM	–	–	3.81
O=NN(CC(=O)NNc1ccccc1)CC(=O)NNc1ccccc1	> 100	> 100 µM	1.22 µM	> 100	> 28.7	> 100	22.4	> 100 µM	> 100	> 100	> 20.1	> 100	6.1	> 100	11.3	> 100	0.579 µM	> 100	> 100	> 100
CCOC(=O)c1nc2sc(Cl)cn2c1/C=N/N=C(N)N	20.4	> 69.8 µM	25.3 µM	> 54.6	28.3	> 59.6	35.8	> 86 µM	20	40.8	25.3	> 58.2	30.6	> 74	21.5	42.1	17 µM	28.7	> 86.4	53.6
COc1cc(/C=C/C(=O)c2cccc(-n3cc(-c4ccccc4)[nH]c3=O)c2)ccc1O	3.16	11.6 µM	2.5 µM	9.16	2.91	14.7	4.88	17.1 µM	1.99	6.68	2.58	8.91	2.72	8.59	2.33	6.06	2.23 µM	3.77	> 100	9.29
COc1cc2c(cc1OCCCN1CCN(CCCOc3cc4c(cc3OC)C(=O)N3C[C@H](F)C[C@H]3C=N4)CC1)N=C[C@@H]1C[C@@H](F)CN1C2=O	0.0255	0.209 µM	0.0176 µM	0.145	0.113	0.464	0.127	0.363 µM	0.064	14.6	0.105	0.288	0.0847	> 26.5	0.119	2.91	0.0269 µM	0.148	> 37.2	3.66
O=c1oc2cc(O)ccc2cc1-c1nc2ccccc2o1	–	> 100 µM	–	> 100	–	54	–	> 100 µM	–	78.3	–	> 100	–	31.2	–	61.8	–	–	> 100	> 100
CCn1cnc(C[C@H](NC(=O)[C@@H](NC(=O)Nc2cc(C(F)(F)F)cc(C(F)(F)F)c2)C(C)(C)C)C(=O)OC)c1	> 10	> 10 µM	> 10 µM	> 10	> 10	> 10	> 10	> 10 µM	> 10	> 10	> 10	> 10	> 10	> 10	> 10	> 10	> 10 µM	> 10	> 10	> 10
Cc1c(C(=O)Nc2ccc(Oc3ccnc4cc(OCC(C)(C)O)ccc34)c(F)c2)c(=O)n(-c2ccccc2)n1C	–	–	–	–	4.53	> 100	–	–	1.88	22.2	–	–	2.79	> 100	–	–	0.393 µM	2.29	> 100	15.3
Cc1cc(N)c2cc(NC(=O)/C=C\c3ccccc3Cl)ccc2n1	1.73	3.32 µM	0.212 µM	0.447	1.58	3.01	1.76	3.23 µM	1.56	3.27	1.15	2.52	–	–	1.31	2.7	0.416 µM	0.41	1.5	1.48
CC(C)C[C@H](NC(=O)[C@@H](N)Cc1cccc2ccccc12)B(O)O	0.245	–	0.184 µM	–	0.87	–	0.315	1.12 µM and 0.114 µM	0.0288	–	0.114	–	0.432	–	0.187	–	–	0.216	–	–
O=C1/C(=C/c2ccc([N+](=O)[O-])s2)Oc2ccc(Br)cc21	0.549	2.22 µM	0.209 µM	0.486	0.257	0.741	0.572	3.96 µM	0.21	0.606	0.397	1.78	0.25	0.804	0.207	0.409	0.135 µM	–	–	0.833
CN(COC(=O)C(C)(C)C)c1nc(N(C)COC(=O)C(C)(C)C)nc(N(C)COC(=O)C(C)(C)C)n1	–	> 100 µM	–	–	–	> 100	–	> 100 µM	–	–	–	–	–	> 100	–	> 100	–	–	> 100	> 100
CCOC(=O)CCC(NC(=O)c1ccc(Oc2nc3cc(N)cc(N)c3nc2-c2ccccc2)cc1)C(=O)OCC (centres undefined)	15.5	30.4 µM	11.9 µM	26.1	33.7	> 100	26.7	55.1 µM	30.1	> 100	30.2	> 100	24.6	59.7	16.2	41.2	–	–	–	–
O=C(Nc1cccc2[nH]c(C(F)(F)F)nc12)c1ccc(Br)cc1F	3.12	10.6 µM	3.78 µM	12.5	3.01	10.3	2.35	6.67 µM	1.38	4.1	3.33	12.1	2.26	7.49	3.62	16.8	3.37 µM	–	–	39.2
Nc1ccccc1SC(CC(=O)c1ccccc1)c1c(Cl)cccc1Cl (centres undefined)	–	–	1.59 µM	3.2	3.46	13.3	14.6	28.6 µM	6.11	21.5	2.87	10.7	2.81	13.4	3.4	12	2.76 µM	2.29	5.03	7.69
Cc1ncc2c(n1)CCC1=C2OS(=O)(=O)CC1N(C)C (centres undefined)	–	> 100 µM	–	> 100	–	> 100	–	> 100 µM	–	–	–	> 100	–	> 100	–	> 100	–	–	> 100	> 100
CCOC(=O)c1ccc(N[C@@H]2c3cc4c(cc3C(c3cc(OC)c(O)c(OC)c3)[C@H]3C(=O)OCC32)OCO4)cc1 (some centres undefined)	0.191	0.768 µM and 2.24 µM	0.217 µM and 0.118 µM	1.61	–	4.58	–	25 µM	0.35	–	–	> 100	–	–	–	6.71	0.662 µM and 1.44 µM	0.949	6.92	27.2
COc1cc(/C=C2\CC3C4CC=C5C[C@@H](N6CCCC6)CC[C@]5(C)C4CC[C@]3(C)[C@H]2OC(C)=O)ccc1OCCCn1ccnc1 (some centres undefined)	4	7.96 µM	–	–	2.19	9.72	2.29	5.27 µM	6.09	17.7	0.912	1.68	2.19	> 50	0.275	0.777	0.119 µM	0.162	> 50	0.36
